# Measurements taken from PubChem BioAssay (NCI).
# “And” between values parts separate entries of the source, which are not always exact repeats. Equal entries are not always repeated.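 How tested: cells in 96-well plates exposed to compound for 48 hours at five concentrations. Definition used: TGI = concentration required for complete inhibition of growth.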
# Tested on: HCC-2998 colon
# Assay: NCI tumour cell line growth inhibition, 48 h
row,SMILES,TGI
1,COc1ccc(N2C(=O)CSC2c2c[nH]c3ccccc23)cc1 (stereo not drawn),> 100 µM
2,C=CCOc1ccc(C2(O)c3ccccc3C3=NCCCN32)cc1 (stereo not drawn),43.3 µM
3,CCC/C(Cl)=N\OC(=O)Nc1ccc(OC(F)(F)F)cc1,38.6 µM
4,C[N+]12CCCCC1C(CN1C(=O)Cc3c4ccccc4c(c4ccccc34)CC1=O)CCC2 (stereo not drawn),> 100 µM
5,CC(=O)O[C@H]1CC[C@@]2(C)C(=CC[C@H]3[C@@H]4C[C@H](N5CCOCC5)[C@H](OC(C)=O)[C@@]4(C)CC[C@@H]32)C1,> 100 µM
6,CCC1(C)C=Cc2c(cc(O)c3c(=O)c4ccccc4n(C)c23)O1 (stereo not drawn),> 10 µM
7,CC(C)(Cl)C(Br)CCC(=CCCl)CBr (mixture of isomers),4.22 µM
8,Nc1[nH]nc2nc3ccc(C(F)(F)F)cc3nc12,> 100 µM
9,CCN1CCC(O)(/C=C/c2ccc(C)cc2C)C(C(=O)/C=C/c2ccc(C)cc2C)C1 (stereo not drawn),3.37 µM
10,O=[N+]([O-])/C(C(Cl)=C(Cl)Cl)=C(\N1CCCCC1)n1cncn1,40.5 µM
11,S=C(Nc1ccc2c(c1)oc1ccccc12)c1cccnc1,> 100 µM
12,O=C1c2cccnc2-c2nccc3c2c1nc1cc(Br)ccc13,1.63 µM
13,NC(CCC(=O)NC(CSCC1C(=O)Nc2ccccc21)C(=O)NCC(=O)O)C(=O)O (stereo not drawn),10.6 µM
14,NNC(=O)CSc1nc2ccccc2c(=O)n1N,> 100 µM
15,Cc1cc(S(=O)(=O)Nc2nc3cc(-c4ccc(Cl)cc4)sc3c(=O)n2N)c(S)cc1Cl,> 100 µM
16,C=C([C@@]1(O)C[C@H]2[C@H](CCC2(OC)OC)[C@@H]2c3ccccc3O[C@@H]21)[Si](C)(C)C,> 100 µM
17,COc1ccc2c(c1)CCN1CCc3ccccc3CC21 (stereo not drawn),48.1 µM
18,CN1COCc2c1ccc1cc3ccc4c(c3nc21)COCN4S(C)(=O)=O,> 100 µM
19,Oc1cccc(-c2nc3cc(F)ccc3s2)c1,23.2 µM
20,CN(C)c1ccc(C2SCC(=O)N2c2ccc(Oc3ccc(Cl)cc3)c(Cl)c2)cc1 (stereo not drawn),52.4 µM
21,CN(C)CCOC1(Cc2ccc(F)cc2)CCC(C(C)(C)C)CC1 (stereo not drawn),12.3 µM and 12.7 µM
22,Nc1ccc(C(=O)N2CCC[C@H]2CO)c(N)c1,> 100 µM
23,CC1=C(CO)C(=O)O[C@@H]([C@@H](CO)[C@H]2CCC3C4C[C@@H](O)[C@@]5(O)CC=CC(=O)[C@]5(C)C4CC[C@@]32C)C1 (stereo partly drawn),> 100 µM
24,CSc1cnc2ccccc2c1SC1CN(Cc2ccccc2)c2ccccc2C1=O (stereo not drawn),> 100 µM
25,C=C(Cl)C(C)(Cl)CCC(Br)C(C)(C)Cl (stereo not drawn),34.2 µM
26,CCNC(=O)Nc1cccc(NC(=O)NCC)n1,> 100 µM

# Tested on: HCT-15 colon
# Assay: NCI tumour cell line growth inhibition, 48 h
row,SMILES,TGI
1,CC12CCC(O)CC1CCC1C2CCC2(C)C(C(=O)CC(O)C(F)(F)F)CCC12 (stereo not drawn),> 100 µM
2,CC(C)(C)OC(=O)NCCCNC1(c2cc3ccccc3s2)CCCCC1,29.5 µM
3,COc1ccc(N2C(=O)CSC2c2c[nH]c3ccccc23)cc1 (stereo not drawn),> 100 µM
4,C=CCOc1ccc(C2(O)c3ccccc3C3=NCCCN32)cc1 (stereo not drawn),> 100 µM
5,C[N+]12CCCCC1C(CN1C(=O)Cc3c4ccccc4c(c4ccccc34)CC1=O)CCC2 (stereo not drawn),> 100 µM
6,CC(=O)O[C@H]1CC[C@@]2(C)C(=CC[C@H]3[C@@H]4C[C@H](N5CCOCC5)[C@H](OC(C)=O)[C@@]4(C)CC[C@@H]32)C1,> 100 µM
7,CCC1(C)C=Cc2c(cc(O)c3c(=O)c4ccccc4n(C)c23)O1 (stereo not drawn),> 10 µM
8,CC(C)(Cl)C(Br)CCC(=CCCl)CBr (mixture of isomers),3 µM
9,Nc1[nH]nc2nc3ccc(C(F)(F)F)cc3nc12,> 100 µM
10,CCN1CCC(O)(/C=C/c2ccc(C)cc2C)C(C(=O)/C=C/c2ccc(C)cc2C)C1 (stereo not drawn),4.14 µM
11,O=[N+]([O-])/C(C(Cl)=C(Cl)Cl)=C(\N1CCCCC1)n1cncn1,38.1 µM
12,S=C(Nc1ccc2c(c1)oc1ccccc12)c1cccnc1,> 100 µM
13,O=C1c2cccnc2-c2nccc3c2c1nc1cc(Br)ccc13,0.25 µM
14,NC(CCC(=O)NC(CSCC1C(=O)Nc2ccccc21)C(=O)NCC(=O)O)C(=O)O (stereo not drawn),11 µM
15,NNC(=O)CSc1nc2ccccc2c(=O)n1N,> 100 µM
16,Cc1cc(S(=O)(=O)Nc2nc3cc(-c4ccc(Cl)cc4)sc3c(=O)n2N)c(S)cc1Cl,> 100 µM
17,C=C([C@@]1(O)C[C@H]2[C@H](CCC2(OC)OC)[C@@H]2c3ccccc3O[C@@H]21)[Si](C)(C)C,> 100 µM
18,COc1ccc2c(c1)CCN1CCc3ccccc3CC21 (stereo not drawn),> 100 µM
19,CN1COCc2c1ccc1cc3ccc4c(c3nc21)COCN4S(C)(=O)=O,> 100 µM
20,Oc1cccc(-c2nc3cc(F)ccc3s2)c1,56.4 µM
21,CN(C)c1ccc(C2SCC(=O)N2c2ccc(Oc3ccc(Cl)cc3)c(Cl)c2)cc1 (stereo not drawn),55.8 µM
22,CN(C)CCOC1(Cc2ccc(F)cc2)CCC(C(C)(C)C)CC1 (stereo not drawn),21.9 µM and 19.7 µM
23,Nc1ccc(C(=O)N2CCC[C@H]2CO)c(N)c1,> 100 µM
24,CC1=C(CO)C(=O)O[C@@H]([C@@H](CO)[C@H]2CCC3C4C[C@@H](O)[C@@]5(O)CC=CC(=O)[C@]5(C)C4CC[C@@]32C)C1 (stereo partly drawn),> 100 µM
25,CSc1cnc2ccccc2c1SC1CN(Cc2ccccc2)c2ccccc2C1=O (stereo not drawn),> 100 µM

# Tested on: HOP-62 NSCLC
# Assay: NCI tumour cell line growth inhibition, 48 h
row,SMILES,TGI [µM]
1,CC12CCC(O)CC1CCC1C2CCC2(C)C(C(=O)CC(O)C(F)(F)F)CCC12 (stereo not drawn),> 95.1
2,CC(C)(C)OC(=O)NCCCNC1(c2cc3ccccc3s2)CCCCC1,28.5
3,COc1ccc(N2C(=O)CSC2c2c[nH]c3ccccc23)cc1 (stereo not drawn),> 100
4,C=CCOc1ccc(C2(O)c3ccccc3C3=NCCCN32)cc1 (stereo not drawn),> 100
5,CCC/C(Cl)=N\OC(=O)Nc1ccc(OC(F)(F)F)cc1,35.5
6,C[N+]12CCCCC1C(CN1C(=O)Cc3c4ccccc4c(c4ccccc34)CC1=O)CCC2 (stereo not drawn),> 100
7,CC(=O)O[C@H]1CC[C@@]2(C)C(=CC[C@H]3[C@@H]4C[C@H](N5CCOCC5)[C@H](OC(C)=O)[C@@]4(C)CC[C@@H]32)C1,> 100
